Experimental data from patent US20220152165A1, “COMBINATION OF NASAL GENE DELIVERY AND ORAL CINNAMIC ACID, OLEAMIDE OR GEMFIBROZIL FOR LYSOSOMAL STOARGE DISORDERS” (Rush University Medical Center, priority 2019, published 2022).

System: Cln2^(−/−) mice
Experiment: Life span of Cln2^(−/−) mice, animal model of late infantile Batten disease (LINCL)
Assay type: in vivo
Details: n=6
Protocol: For intranasal gene delivery, Cln2^(−/−) mice received 5×10^6 genome copies of Ad-Cln2 in a volume of […] twice a week intranasally (2.5 μl/nostril) starting from two weeks of age for four weeks. For gemfibrozil (gem) treatment, mice received gem (dissolved in 0.1% MeC) orally at a dose of 7.5 mg/kg body weight/day starting from six weeks of age. FIG. 1 describes the percentage of survival is shown by Kaplan-Meier plot.
For intranasal gene delivery, Cln2^(−/−) mice received 5×10^6 genome copies of Ad-Cln2 in a volume of […] twice a week intranasally (2.5 μl/nostril) starting from two weeks of age for four weeks. For gemfibrozil (gem) treatment, mice received gem (dissolved in 0.1% MeC) orally at a dose of 7.5 mg/kg body weight/day starting from six weeks of age. FIG. 2 describes mean survival days. Six mice (n=6) containing 3 males and 3 females were used in each group. ***p<0.001; NS, not significant.
Intranasal gene delivery was examined as a valid option for fatal lysosomal storage disorders. A mouse model of Late Infantile Neuronal Ceroid Lipofuscinosis (LINCL) was used, a rare neurodegenerative disease caused by mutations in the Cln2 gene that leads to deficiency or loss of function of the tripeptidyl peptidase 1 (TPP1) enzyme. […]

Cc1ccc(C)c(OCCCC(C)(C)C(=O)O)c1 [gemfibrozil, 5-(2,5-dimethylphenoxy)-2,2-dimethylpentanoic acid]
lifespan of Cln2^−/− mice (gemfibrozil alone, oral 7.5 mg/kg body weight/day starting from six weeks of age, mice not receiving Ad-Cln2): significantly increased the lifespan
lifespan of Cln2^−/− mice that received intranasal Ad-Cln2 (oral gemfibrozil 7.5 mg/kg body weight/day after 4 weeks of intranasal Ad-Cln2, compared with Ad-Cln2 alone): did not further increase the lifespan
